Test results reported in patent publication US20050255084A1, “Use of a half-transporter protein of the abcg-family for selecting cells and in gene therapy” (SOLVO BIOTECHNOLOGY, priority 2001, published 2005).
Converted amounts (≈) assume the structure as drawn.

Key:
[1] = Cytotoxicity assay (cell survival after 4 days), vector control; type: cell-based; conditions: human, mock-transduced (vector control) PLB985 cells
Experimental: (§1) Panel C: Cytotoxicity assay (cell survival after 4 days) of PLB985 cells expressing the ABCG2 variants. • ∘: Control, mock-transduced PLB985s; • Δ: PLB985s expressing ABCG2-R, selected by 10 nM MX; • ◯: PLB985s expressing ABCG2-G, selected by 100 nM MX.
(§2) This assay was performed in 24-well plates, cells seeded at a density of 200,000 cells/well. Cytotoxic drugs were added at the concentrations indicated and the cells were cultured for 4 days at 37° C. Total and live cell numbers were determined by flow cytometry after the addition of 2 μg/ml propidium-iodide, to identify dead cells.

[2] = system: ABCG2-R (wild-type ABCG2); assay: Cytotoxicity assay (cell survival after 4 days), wild-type ABCG2; type: cell-based; conditions: human, PLB985 cells expressing ABCG2-R (wild-type ABCG2), selected by 10 nM MX
Experimental: as §1, §2

ABCG2-G (R482G ABCG2) = assay: Cytotoxicity assay (cell survival after 4 days), R482G ABCG2; type: cell-based; conditions: human, PLB985 cells expressing ABCG2-G (R482G ABCG2), selected by 100 nM MX
Experimental: as §1, §2

ABCG2-G [3] = target: T1, ABCG2-G (Homo sapiens, UniProt Q9UNQ0, R482G); conditions: 10 μM FTC, 5 μM MX; transduced cells pre-selected with 10 nM MX
T1 sequence (Q9UNQ0 whole entry R482G): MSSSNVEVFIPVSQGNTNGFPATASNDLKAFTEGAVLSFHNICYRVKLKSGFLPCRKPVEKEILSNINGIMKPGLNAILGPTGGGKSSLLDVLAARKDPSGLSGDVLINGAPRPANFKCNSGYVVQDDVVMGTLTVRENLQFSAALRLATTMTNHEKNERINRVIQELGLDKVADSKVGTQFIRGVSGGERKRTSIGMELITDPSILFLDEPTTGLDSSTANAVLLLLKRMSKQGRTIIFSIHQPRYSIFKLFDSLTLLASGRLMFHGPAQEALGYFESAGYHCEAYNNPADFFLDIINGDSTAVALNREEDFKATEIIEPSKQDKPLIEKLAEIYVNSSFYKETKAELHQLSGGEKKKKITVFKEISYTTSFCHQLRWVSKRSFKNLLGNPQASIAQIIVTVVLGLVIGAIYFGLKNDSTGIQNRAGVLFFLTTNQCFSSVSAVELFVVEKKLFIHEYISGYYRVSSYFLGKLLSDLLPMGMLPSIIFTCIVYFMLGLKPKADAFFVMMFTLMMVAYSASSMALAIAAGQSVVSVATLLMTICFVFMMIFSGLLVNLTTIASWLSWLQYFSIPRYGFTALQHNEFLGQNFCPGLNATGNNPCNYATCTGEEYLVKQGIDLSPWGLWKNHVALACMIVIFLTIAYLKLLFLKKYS
Experimental: (§3) Functional detection of ABCG2 expression was evaluated with a modified MX uptake assay of Robey et al. (Robey et al., 2001). Cells were suspended in phenol red-free Hank's balanced salt solution, with additional pH stabilization by 20 mM phosphate buffer. Aliquots of the suspension, containing 3×10^5 cells, were incubated with or without the addition of 5 μM MX, and also with 5 μM MX+10 μM FTC, a specific inhibitor of ABCG2 (Rabindran et al., 2000; van Loevezijn et al., 2001). After one hour incubation at 37° C., the cells were washed with ice-cold medium, resuspended in ice-cold medium containing 21 µg/ml propidium-iodide, and stored on ice until analysis by flow cytometry. Cellular MX values were determined at 635 nm excitation/661 nm emission wavelengths.

[4] = system: mock-transduced PLB985 X-CGD cells; assay: Mitoxantrone uptake assay, mock-transduced cells; type: cell-based, human; conditions: 10 μM FTC, 5 μM MX
Experimental: Cells were suspended in phenol red-free Hank's balanced salt solution, with additional pH stabilization by 20 mM phosphate buffer. Aliquots of the suspension, containing 3×10^5 cells, were incubated with or without the addition of 5 μM MX, and also with 5 μM MX+10 μM FTC, a specific inhibitor of ABCG2 (Rabindran et al., 2000; van Loevezijn et al., 2001). After one hour incubation at 37° C., the cells were washed with ice-cold medium, resuspended in ice-cold medium containing 21 g/ml propidium-iodide, and stored on ice until analysis by flow cytometry. Cellular MX values were determined at 635 nm excitation/661 nm emission wavelengths.

ABCG2-R = ABCG2-R (Homo sapiens, UniProt Q9UNQ0); conditions: 10 μM FTC, 5 μM MX; ABCG2-R cells selected by 10 nM MX
ABCG2-R, sequence (Q9UNQ0 whole entry): as the sequence (Q9UNQ0 whole entry R482G) above, with G482R counted along it
Experimental: (§4) Panel B: Flow cytometry detection of mitoxantrone uptake (dotted lines: autofluorescence, solid thick lines: MX fluorescence, solid thin lines: MX fluorescence in the presence of the ABCG2-inhibitor, FTC). Part 1: Mock-transduced PLB985s; Part 2: PLB985s expressing ABCG2-R, selected by 10 nM MX; Part 3: PLB985s expressing ABCG2-G, selected by 100 nM MX.
as §3

ABCG2-G [5] = target: T1, ABCG2-G; conditions: 10 μM FTC, 5 μM MX; ABCG2-G cells selected by 100 nM MX
Experimental: as §4, §3

[6] = system: transduced PLB985 X-CGD cells; assay: Flow cytometry of gp91phox expression after drug selection; type: cell-based, human; conditions: 10 nM MX selection for four days; 40-48% before selection
Experimental: (§5) Transduced PLB985 cells were selected by stepwise increases in mitoxantrone or doxorubicin (DOX; other name: adriamycin) concentrations. Selection was started 5 days (in some cases: 7 days) after transduction; each drug concentration was applied for four days (in early experiments: 8 days). CD34+ cells were selected similarly but were first selected on day two after transduction.
(§6) Gp91^phox expression was measured by flow cytometry (Becton Dickinson FACS Calibur) by using the 7D5 antibody (provided by M. Nakamura (Nakamura et al., 1987) and phycoerythrin-labeled anti-mouse secondary antibody (GAM-PE, 250 times dilution, Sigma).

[7] = system: mouse X-CGD KO -/- bone marrow cells; assay: Flow cytometry of gp91phox expression in selected mouse bone marrow cells; type: cell-based; conditions: 5 days selection on 5 nM or 10 nM MX; SPsAGS transduced BM cells
Experimental: as §6
(§7) Drug selection of the transduced cells, cytotoxic assay, immunodetection of gp91^phox, nitroblue tetrazolium test (NBT) were performed similar as in human CD34+ cells except using murine cytokines. In the colony assay 10 000 cells were plated in semisolid medium containing 0, 5 and 10 nM MX.

[8] = system: human cord blood CD34+ cells; assay: Suspension culture granulocyte differentiation with MX selection; type: cell-based; conditions: 5 nM MX selection
Text: as §5
Cell differentiation was induced by 0.5% dimethyl-formamide (DMF) in order to obtain granulocytes. In order to follow granulocyte differentiation, cells were labelled with monoclonal anti-CD11b/RPE antibody (Dako, Denmark), and staining was determined by flow cytometry. For the induction of differentiation in the case of normal CD34+ cells, both liquid suspension cultures and clonogenic progenitor assays were used. For suspension culture, fresh media, containing cytokines +G-CSF (50 ng/ml) were added to the cells 24 hours after transduction, and then the cells were incubated for 12-14 days at 37° C.

[9] = system: mouse X-CGD KO -/- bone marrow cells; assay: Cytotoxicity assay on mouse bone marrow cells; type: cell-based
Experimental: FIG. 8. Panel A Cytotoxicity assay (cell survival after four days) on transduced mouse X-CGD KO −/− bone marrow cells • ♦Control, non transduced cells • ▪Cells tranduced by SPsAGS vector carrying cDNA of ABCG2-G, unselected, • ▴Cells tranduced by SPsATS vector carrying cDNA of ABCG2-T, unselected.
as §2, §7

[10] = system: human cord blood CD34+ cells; assay: Colony-forming cell assay; type: cell-based; conditions: 5 nM MX
Experimental: In the colony-forming cell assay the cells were plated at a concentration of 250 cells/ml and 1250 cells/ml in Iscove's medium, containing 0.9% methylcellulose, 30% FCS, 1% bovine serum albumin, 1.4×10^−5M dithiothreitol, 5 ng/ml human recombinant IL-3, 25 ng/ml SCF, 10 ng/ml GM-CSF, 2 ng/ml G-CSF and 2U/ml erythropoietin, in the presence or absence of 5 nM mitoxantrone. After 14 days of incubation at 37° C., the colony forming cells were counted.

[11] = system: mouse X-CGD KO -/- bone marrow cells; assay: Colony assay from mouse bone marrow cells; type: cell-based; conditions: 5 nM or 10 nM MX in semisolid medium
Experimental: In the colony assay 10 000 cells were plated in semisolid medium containing 0, 5 and 10 nM MX.

Structure (SMILES) | IC50 at 4 days [1] | IC50 at 4 days [2] | IC50 at 4 days (ABCG2-G (R482G ABCG2)) | sensitivity of MX uptake to the inhibitor (ABCG2-G [3]) | effect on MX uptake [4] | reversal of MX extrusion (ABCG2-R) | reversal of MX extrusion (ABCG2-G [5]) | ratio of gp91phox-expressing cells after selection [6] | gp91phox-positive cells after selection [7] | level of CD15+ cells after selection ([8]; ABCG2-G transduced CD34+ cells) | fate of mock-transduced cells in suspension culture ([8]; mock-transduced CD34+ cells) | survival of cells ([9]; 5 nM or more mitoxantron, non-transduced control BM cells) | transduced cells resistant to MX (surviving cells) ([9]; 5 or 10 nM mitoxantron, SPsAGS or SPsATS transduced, unselected BM cells) | decrease of CFC number ([10]; ABCG2-G transduced CD34+ cells) | colony formation ([10]; mock-transduced CD34+ cells) | colony formation ([11]; ABCG2-G transduced BM cells) | decrease of CFC number ([11]; ABCG2-T transduced BM cells) | colony formation ([11]; non-transduced BM cells)
COc1cccc2c1C(=O)c1c(O)c3c(c(O)c1C2=O)C[C@@](O)(C(=O)CO)C[C@@H]3O[C@H]1C[C@H](N)[C@H](O)[C@H](C)O1 [ADR, doxorubicin] | ~0.008 µg/mL (≈ 0.0147 µM) | ~0.02 µg/mL (≈ 0.0368 µM) | ~0.25 µg/mL (≈ 0.46 µM) | – | – | – | – | – | – | – | – | – | – | – | – | – | – | –
COc1ccc2c3c([nH]c2c1)[C@H](C=C(C)C)N1C(=O)[C@@H]2CCCN2C(=O)[C@@H]1C3 [FTC, Fumitremorgin C] | – | – | – | fully sensitive | no effect | fully reversible | fully reversible | – | – | – | – | – | – | – | – | – | – | –
O=C1c2c(O)ccc(O)c2C(=O)c2c(NCCNCCO)ccc(NCCNCCO)c21 [MX, mitoxantrone] | ~0.01 µg/mL (≈ 0.0225 µM) | 0.03 µg/mL (≈ 0.0675 µM) | 0.075 µg/mL (≈ 0.169 µM) | – | – | – | – | over 90% | > 80% | unchanged level of CD15+ cells | eliminated | all non-transduced control cells died | 15-20% | about 50% | did not form colonies | hardly formed any | about 80% | did not form colonies
